In US20090062401A1, “DECALINE-DERIVED COMPOUNDS AS […] ACTIVE AGENTS” (UNIVERSITAT DORTMUND, priority 2004, published 2009):
Read-outs that look alike come from different tables or passages of the source.

Tests used:
[1] = molecular target: T1, PTP1B (Homo sapiens, UniProt P18031); experiment: PTP1B phosphatase inhibition, general phosphatase assay using para-nitrophenylphosphate; format: biochemical; conditions: read-out: IC50 Target PTP1B
T1 sequence (P18031 1-435): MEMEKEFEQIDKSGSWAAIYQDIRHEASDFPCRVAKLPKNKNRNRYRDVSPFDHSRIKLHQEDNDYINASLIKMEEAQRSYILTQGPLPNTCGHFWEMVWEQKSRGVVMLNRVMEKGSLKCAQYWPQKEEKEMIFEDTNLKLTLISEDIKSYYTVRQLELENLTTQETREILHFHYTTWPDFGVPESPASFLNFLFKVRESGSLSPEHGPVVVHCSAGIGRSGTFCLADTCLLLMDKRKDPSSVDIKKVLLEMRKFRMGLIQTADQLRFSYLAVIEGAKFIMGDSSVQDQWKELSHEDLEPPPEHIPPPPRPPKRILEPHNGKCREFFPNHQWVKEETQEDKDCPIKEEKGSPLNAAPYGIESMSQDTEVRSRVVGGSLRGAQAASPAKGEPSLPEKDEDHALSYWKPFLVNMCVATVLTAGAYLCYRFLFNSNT
Excerpt: (§1) Assays protocols for the other enzymes mentioned herein (MtPTPA, PP1, VHR, PTP1B) are disclosed in Schweizer R A S, Atanasov, G A, Frey B M, and Odermatt A, Mol. Cell. Endocrinol. 2003, 212, 41-49 and Barratte, B., Meijer L., Galaktionov K. & Beach D, Anticancer Res. 1992, 12, 873-880. For determination of the phosphatase activity, a general phosphatase assay using para-nitrophenylphosphate was applied.

[2] = molecular target: 11beta-HSD1 (Homo sapiens, UniProt P28845); experiment: biochemical; conditions: read-out: IC50 Target 11beta-HSD1
Chain of 11beta-HSD1 (P28845 whole entry): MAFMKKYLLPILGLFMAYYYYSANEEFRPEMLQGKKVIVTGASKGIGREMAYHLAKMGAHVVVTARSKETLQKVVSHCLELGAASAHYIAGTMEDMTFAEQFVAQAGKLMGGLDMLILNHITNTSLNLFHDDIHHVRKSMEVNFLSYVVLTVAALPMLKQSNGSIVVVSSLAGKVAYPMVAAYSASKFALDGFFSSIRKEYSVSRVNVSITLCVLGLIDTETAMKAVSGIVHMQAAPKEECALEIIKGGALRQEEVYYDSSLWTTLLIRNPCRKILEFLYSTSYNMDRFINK
Excerpt: (§2) Assay protocols for Cdc25A, 11βHSD1, 11βHSD2, and AChE are described in detain in the publication of Koch M A, Wittenberg L O, Basu S, Jeyaraj D A, Gourzoulidou E, Reinecke K, Odermatt A, Waldmann H (Proc. Natl. Acad. Sci. U.S.A. 2004 Nov. 30; 101(48):16721-6) and in Koch M A et al., Proc. Natl. Acad. Sci. U.S.A. 2005 Nov. 29; 102 (48):17272-7.

[3] = molecular target: T2, 11beta-HSD2 (Homo sapiens, UniProt P80365); experiment: 11beta-HSD2 inhibition; format: biochemical; conditions: read-out: IC50 Target 11beta-HSD2
T2 sequence (P80365 1-405): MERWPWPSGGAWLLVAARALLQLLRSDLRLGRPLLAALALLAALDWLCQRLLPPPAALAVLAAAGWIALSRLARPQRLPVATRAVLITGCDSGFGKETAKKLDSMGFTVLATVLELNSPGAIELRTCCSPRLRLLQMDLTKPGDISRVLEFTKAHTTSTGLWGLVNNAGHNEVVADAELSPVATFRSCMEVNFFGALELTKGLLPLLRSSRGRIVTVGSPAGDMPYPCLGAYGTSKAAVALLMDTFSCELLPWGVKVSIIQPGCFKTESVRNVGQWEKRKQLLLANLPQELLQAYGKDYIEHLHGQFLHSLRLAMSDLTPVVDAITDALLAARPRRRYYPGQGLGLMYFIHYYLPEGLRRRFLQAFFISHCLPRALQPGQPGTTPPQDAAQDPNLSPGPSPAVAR
Excerpt: as §2

[4] = molecular target: AChE (Homo sapiens, UniProt P22303); experiment: Acetylcholinesterase inhibition; format: biochemical
Chain of AChE (P22303 32-614): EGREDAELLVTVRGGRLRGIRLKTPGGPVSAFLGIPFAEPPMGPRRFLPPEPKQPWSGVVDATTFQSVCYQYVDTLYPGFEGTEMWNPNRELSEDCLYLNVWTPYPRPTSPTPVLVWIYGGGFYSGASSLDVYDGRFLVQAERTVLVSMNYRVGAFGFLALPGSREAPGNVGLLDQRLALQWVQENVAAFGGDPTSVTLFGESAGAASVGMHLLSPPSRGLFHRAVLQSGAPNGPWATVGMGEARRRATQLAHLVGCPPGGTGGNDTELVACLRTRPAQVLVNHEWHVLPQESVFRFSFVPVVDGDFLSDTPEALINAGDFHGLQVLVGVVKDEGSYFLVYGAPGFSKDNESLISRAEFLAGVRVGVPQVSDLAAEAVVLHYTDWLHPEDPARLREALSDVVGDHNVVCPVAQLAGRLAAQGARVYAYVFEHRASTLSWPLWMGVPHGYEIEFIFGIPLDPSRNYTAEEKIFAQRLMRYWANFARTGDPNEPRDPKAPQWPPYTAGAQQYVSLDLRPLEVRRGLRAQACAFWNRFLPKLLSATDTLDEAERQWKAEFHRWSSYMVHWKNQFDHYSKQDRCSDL
Excerpt: as §2

[5] = molecular target: VHR (Homo sapiens, UniProt P51452); experiment: VHR phosphatase inhibition, general phosphatase assay using para-nitrophenylphosphate; format: biochemical; conditions: read-out: IC50 Target VHR
Chain of VHR (P51452 whole entry, species assumed): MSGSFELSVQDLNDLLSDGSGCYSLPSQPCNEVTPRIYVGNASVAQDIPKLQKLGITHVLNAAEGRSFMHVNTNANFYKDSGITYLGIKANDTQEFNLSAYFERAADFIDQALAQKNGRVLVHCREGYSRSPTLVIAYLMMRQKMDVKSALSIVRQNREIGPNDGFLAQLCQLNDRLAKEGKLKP
Excerpt: as §1

[6] = molecular target: T3, Cdc25A (Homo sapiens, UniProt P30304); experiment: Cdc25A phosphatase inhibition; format: biochemical; conditions: read-out: IC50 Target Cdc25A
T3 sequence (P30304 1-524): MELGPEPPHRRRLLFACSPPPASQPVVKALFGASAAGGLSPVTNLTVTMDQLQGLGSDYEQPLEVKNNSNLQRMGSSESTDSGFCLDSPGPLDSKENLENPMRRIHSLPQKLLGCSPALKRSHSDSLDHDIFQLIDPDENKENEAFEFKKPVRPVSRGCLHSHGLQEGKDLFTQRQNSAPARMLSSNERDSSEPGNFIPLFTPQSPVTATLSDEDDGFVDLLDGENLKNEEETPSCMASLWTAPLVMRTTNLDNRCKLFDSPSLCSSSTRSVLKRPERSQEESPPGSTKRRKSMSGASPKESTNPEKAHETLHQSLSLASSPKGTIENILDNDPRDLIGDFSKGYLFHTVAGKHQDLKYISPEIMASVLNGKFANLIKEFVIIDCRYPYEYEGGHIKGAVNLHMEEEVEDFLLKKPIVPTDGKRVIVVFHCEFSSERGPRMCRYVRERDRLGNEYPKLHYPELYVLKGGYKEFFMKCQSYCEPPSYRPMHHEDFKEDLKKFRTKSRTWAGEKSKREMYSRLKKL
Excerpt: as §2

[7] = molecular target: PP1; experiment: PP1 phosphatase inhibition, general phosphatase assay using para-nitrophenylphosphate; format: biochemical; conditions: read-out: IC50 Target PP1
Excerpt: as §1

[8] = molecular target: MPTPA (Mycobacterium tuberculosis, UniProt P9WIA1); experiment: MtPTPA phosphatase inhibition, general phosphatase assay using para-nitrophenylphosphate; format: biochemical
Chain of MPTPA (P9WIA1 whole entry): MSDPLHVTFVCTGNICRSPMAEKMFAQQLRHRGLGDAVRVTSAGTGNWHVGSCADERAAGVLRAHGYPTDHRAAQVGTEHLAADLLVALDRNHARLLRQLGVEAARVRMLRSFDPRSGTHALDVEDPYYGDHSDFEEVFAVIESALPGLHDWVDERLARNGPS
Excerpt: as §1

Row | Compound | IC50 [1] | IC50 [2] | IC50 [3] | IC50 ([4]; read-out: IC50 Target AChE) | IC50 [5] | IC50 [6] | IC50 [7] | IC50 [8] | IC50 [4]
1 | CC(=O)Oc1ccc(/C=C2\C[C@@]3(C)C(=C(C)C2=O)CCC[C@@H]3O)cc1 [Compound 31, 4-{(1E)-[(4S,4aS)-1,2,3,4,4a,5-Hexahydro-4-hydroxy-4a,8-dimethyl-7-oxonaphthalen-6(7H)-yliden]methyl}phenylacetat] | 10 to 50 µM | < 10 µM | 10 to 50 µM | < 10 µM |  |  |  |  | 
2 | CC1=C2CC(c3ccccc3)CC(O)C2CCC1=O (stereo not shown) [Compound 167, 5-Hydroxy-1-methyl-7-phenyl-4,4a,5,6,7,8,-hexahydro-3H-naphthalen-2-one] |  |  |  | < 10 µM |  |  |  |  | 
3 | CCC/C=C1\C[C@@]2(C)C(=C(C)C1=O)CCC[C@@H]2O [Compound 32, (3E,4aS,5S)-3-Butyliden-4,4a,5,6,7,8-hexahydro-5-hydroxy-1,4a-dimethylnaphthalen-2(3H)-one] | 10 to 50 µM | < 10 µM | < 10 µM |  | < 10 µM | 10 to 50 µM | 10 to 50 µM | < 10 µM | < 10 µM
4 | O=C1C(=Cc2ccco2)CCC2CC=CCC12 (stereo not shown) [Compound 403, 2-Furan-2-ylmethylene-3,4,4a,5,8,8a-hexahydro-2H-naphthalen-1-one] |  | < 10 µM | < 10 µM |  |  |  |  |  | 
5 | CCc1cc(OC)ccc1/C=C1\C[C@@]2(C)C(=C(C)C1=O)CCC[C@@H]2O [Compound 15, (3E,4aS,5S)-3-(2-Ethyl-4-methoxybenzyliden)-4,4a,5,6,7,8-hexahydro-5-hydroxy-1,4a-dimethylnaphthalen-2(3H)-one] |  | < 10 µM | 10 to 50 µM |  |  |  |  |  | 
6 | C/C=C/C=C1\C[C@@]2(C)C(=C(C)C1=O)CCC[C@@H]2O [Compound 29, (3E,4aS,5S)-3-[(E)-But-2-enyliden]-4,4a,5,6,7,8-hexahydro-5-hydroxy-1,4a-dimethylnaphthalen-2(3H)-one] | < 10 µM | < 10 µM | < 10 µM |  |  | 10 to 50 µM |  |  | < 10 µM
